Data taken from ChEMBL document CHEMBL1201862, “PubChem BioAssay data set” (2004).
Active and inactive are the calls of the source. For most assays here, no stated cut-off is given here; in the data, actives have a measured EC50 and inactives only a lower limit.

Assays:
[1] = target: T1, Polyadenylate-binding protein 1 (Homo sapiens, UniProt P11940); experiment: MLLE binding blockers, Cy5 peptide tracer – biochemical, fluorescence polarization, Cy5-PAM2 peptide, secondary, miRNA deadenylation inhibitor project, dose response (AID 602260); format: functional; settings: read-out: IC50_Mean
[2] = target: T1, Polyadenylate-binding protein 1; experiment: MLLE domain peptide-binding blockers, IC50 – biochemical, fluorescence polarization, FITC-PAM2 peptide, dose response (AID 602259); format: functional; settings: read-out: IC50_Mean
[3] = target: T2, RNA-binding protein pos-1 (Caenorhabditis elegans, UniProt G5EF15); experiment: disruptors of C. elegans POS-1 RNA interaction – biochemical, fluorescence polarization, dose response (AID 1964);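 further: purified POS-1 fused to maltose binding protein made in E. coli; potency of compounds blocking POS-1 binding to fluorescent RNA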
T2 sequence (G5EF15 whole entry): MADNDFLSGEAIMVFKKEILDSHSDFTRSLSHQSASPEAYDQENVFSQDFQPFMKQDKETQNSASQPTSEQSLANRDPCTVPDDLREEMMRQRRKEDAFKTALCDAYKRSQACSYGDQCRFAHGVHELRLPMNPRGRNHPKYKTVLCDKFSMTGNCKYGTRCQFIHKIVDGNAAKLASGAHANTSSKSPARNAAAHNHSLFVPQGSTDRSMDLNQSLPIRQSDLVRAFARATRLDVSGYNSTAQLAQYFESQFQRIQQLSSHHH

[4] = target: T3, Zinc finger protein mex-5 (Caenorhabditis elegans, UniProt Q9XUB2); experiment: potency of MEX-5 RNA-binding blockers – biochemical, C. elegans, fluorescence polarization, dose response (AID 1960)
T3 sequence (Q9XUB2 whole entry): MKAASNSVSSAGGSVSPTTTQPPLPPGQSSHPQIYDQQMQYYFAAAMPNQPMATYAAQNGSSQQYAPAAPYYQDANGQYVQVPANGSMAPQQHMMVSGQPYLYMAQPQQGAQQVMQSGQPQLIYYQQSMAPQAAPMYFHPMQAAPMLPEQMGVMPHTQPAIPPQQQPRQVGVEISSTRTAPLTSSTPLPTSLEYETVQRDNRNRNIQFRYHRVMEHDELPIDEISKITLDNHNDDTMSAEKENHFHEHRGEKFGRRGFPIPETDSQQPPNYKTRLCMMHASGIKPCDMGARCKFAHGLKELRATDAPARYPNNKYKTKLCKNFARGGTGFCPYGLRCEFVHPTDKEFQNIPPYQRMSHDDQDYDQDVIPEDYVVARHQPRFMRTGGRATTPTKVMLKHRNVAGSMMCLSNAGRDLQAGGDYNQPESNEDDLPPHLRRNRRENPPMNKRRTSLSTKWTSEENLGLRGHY

[5] = target: Induced myeloid leukemia cell differentiation protein Mcl-1 (Homo sapiens, UniProt Q07820); format: functional
cells [6] = format: functional
cells [7] = format: functional, cell-based
cells [8] = format: functional, cell-based; remark: listed apart in the source
[9] = target: T4, Corticotropin-releasing factor receptor 2/Corticotropin-releasing factor-binding protein (Homo sapiens, UniProt P24387+Q13324); experiment: activators of CRF receptor 2 with binding protein – uHTS hits, confirmation (AID 602473); format: functional; settings: read-out: EC50_Mean
T4 sequence (Q13324 whole entry): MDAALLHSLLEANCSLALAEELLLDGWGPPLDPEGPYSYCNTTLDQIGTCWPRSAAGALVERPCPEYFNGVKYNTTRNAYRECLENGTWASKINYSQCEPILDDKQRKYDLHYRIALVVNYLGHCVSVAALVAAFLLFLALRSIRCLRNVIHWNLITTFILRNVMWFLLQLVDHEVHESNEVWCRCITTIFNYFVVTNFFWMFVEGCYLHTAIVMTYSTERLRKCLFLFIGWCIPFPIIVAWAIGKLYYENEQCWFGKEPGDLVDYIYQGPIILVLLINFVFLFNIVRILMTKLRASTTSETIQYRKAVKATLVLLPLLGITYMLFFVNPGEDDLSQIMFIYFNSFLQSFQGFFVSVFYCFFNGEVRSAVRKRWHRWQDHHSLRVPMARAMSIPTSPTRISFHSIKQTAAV
T4 sequence (P24387 whole entry): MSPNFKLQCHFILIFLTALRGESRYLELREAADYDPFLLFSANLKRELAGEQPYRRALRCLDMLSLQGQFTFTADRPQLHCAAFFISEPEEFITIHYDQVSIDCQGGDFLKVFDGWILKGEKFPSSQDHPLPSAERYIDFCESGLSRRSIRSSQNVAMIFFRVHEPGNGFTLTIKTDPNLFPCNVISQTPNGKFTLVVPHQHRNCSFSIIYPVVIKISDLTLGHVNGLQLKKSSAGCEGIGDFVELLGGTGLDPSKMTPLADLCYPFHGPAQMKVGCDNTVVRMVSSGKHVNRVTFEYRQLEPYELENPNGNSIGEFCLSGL

[10] = target: T5, Rac GTPase-activating protein 1 (Homo sapiens, UniProt Q9H0H5); experiment: blockers of MgcRacGAP-driven Rac1 GTP hydrolysis – biochemical, ADP Hunter fluorescence, primary and confirmatory, confirmation (AID 624330); format: functional
T5 sequence (Q9H0H5 whole entry): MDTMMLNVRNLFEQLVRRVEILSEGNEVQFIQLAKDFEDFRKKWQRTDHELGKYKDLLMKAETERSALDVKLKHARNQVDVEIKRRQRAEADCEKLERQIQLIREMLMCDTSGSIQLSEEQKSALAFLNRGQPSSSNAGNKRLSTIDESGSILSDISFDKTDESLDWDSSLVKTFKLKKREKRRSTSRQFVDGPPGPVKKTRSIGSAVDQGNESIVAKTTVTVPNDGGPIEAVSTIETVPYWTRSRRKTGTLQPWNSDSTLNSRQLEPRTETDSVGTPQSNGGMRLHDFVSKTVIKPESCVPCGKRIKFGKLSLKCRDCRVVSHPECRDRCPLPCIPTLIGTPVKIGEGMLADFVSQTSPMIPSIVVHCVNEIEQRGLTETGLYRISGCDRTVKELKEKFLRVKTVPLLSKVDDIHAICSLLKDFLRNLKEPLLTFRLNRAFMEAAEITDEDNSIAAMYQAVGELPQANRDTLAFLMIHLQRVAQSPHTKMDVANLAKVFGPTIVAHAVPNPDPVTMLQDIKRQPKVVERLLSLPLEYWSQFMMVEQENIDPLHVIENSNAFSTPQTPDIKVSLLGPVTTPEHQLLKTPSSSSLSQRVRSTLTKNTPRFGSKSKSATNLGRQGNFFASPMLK

Cytochrome P450 2C9 = Cytochrome P450 2C9 (Homo sapiens, UniProt P11712)
Cytochrome P450 3A4 = Cytochrome P450 3A4 (Homo sapiens, UniProt P08684);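 further: CYP3A4 tested as one member of a cytochrome P450 panel screen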
BJ [11] = experiment: cells; format: functional, cell-based; settings: Homo sapiens
[12] = DRD fibroblast viability loss – cell-based, non-viral oncogenic, luminescence, dose response (AID 1934); format: functional; settings: Homo sapiens
BJ [13] = experiment: BJ-TERT-LT-ST fibroblast viability loss – cell-based, RAS-independent, luminescence, dose response (AID 1935); format: functional; settings: Homo sapiens;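 further: BJ fibroblasts immortalized with TERT plus LT and ST oncogenes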
BJ [14] = experiment: BJ-TERT fibroblast viability loss – cell-based, RAS-independent, luminescence, dose response (AID 1933); format: functional; settings: Homo sapiens
Vero = experiment: cells; format: functional; settings: Chlorocebus sabaeus
[15] = target: Luciferin 4-monooxygenase (Photinus pyralis, UniProt P08659); experiment: inhibition of purified Photinus pyralis luciferase – biochemical, luminescence, dose response (AID 1891)
[16] = Luminescence Cell-Based Dose Confirmation HTS to Identify Inhibitors of Platelet Dense Granule Release. [Related pubchem assays: 1663 (Primary HTS), 1678 (Summary of Project)]; format: functional
Paired box protein Pax-8 = Paired box protein Pax-8 (Homo sapiens, UniProt Q06710); experiment: PAX8 transcriptional activity inhibition in RMG-I – RMG-I cells, luciferase, cherry-pick, dose response (AID 687027); format: functional, cell-based;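 further: luciferase reporter driven by Pax8 target thyroperoxidase promoter measured by SteadyGlo luminescence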
[17] = Luminescence Cell-Based Dose Response HTS to Identify Activators of Luciferase Translation or Activity in H4 […] Cells. [Related pubchem assays: 1829 (Project Summary), 1814 (Primary HTS)]; format: functional
H4 = experiment: Luminescence Cell-Based Dose Response HTS to Identify Activators of 5'UTR Stem-Loop Driven Prion Protein mRNA Translation in H4 Neuroglioblastoma Cells. [Related pubchem assays: 1829 (Project Summary), 1814 (Primary HTS)]; format: functional; settings: Homo sapiens
[18] = Luminescence Cell-Based Dose Confirmation HTS to Identify Activators of 5'UTR Stem-Loop Driven Alpha-Synuclein mRNA Translation in H4 Neuroglioblastoma Cells. [Related pubchem assays: 1829 (Project Summary), 1814 (Primary HTS)]; format: functional

T1 sequence (P11940 whole entry, the tested form may be a part): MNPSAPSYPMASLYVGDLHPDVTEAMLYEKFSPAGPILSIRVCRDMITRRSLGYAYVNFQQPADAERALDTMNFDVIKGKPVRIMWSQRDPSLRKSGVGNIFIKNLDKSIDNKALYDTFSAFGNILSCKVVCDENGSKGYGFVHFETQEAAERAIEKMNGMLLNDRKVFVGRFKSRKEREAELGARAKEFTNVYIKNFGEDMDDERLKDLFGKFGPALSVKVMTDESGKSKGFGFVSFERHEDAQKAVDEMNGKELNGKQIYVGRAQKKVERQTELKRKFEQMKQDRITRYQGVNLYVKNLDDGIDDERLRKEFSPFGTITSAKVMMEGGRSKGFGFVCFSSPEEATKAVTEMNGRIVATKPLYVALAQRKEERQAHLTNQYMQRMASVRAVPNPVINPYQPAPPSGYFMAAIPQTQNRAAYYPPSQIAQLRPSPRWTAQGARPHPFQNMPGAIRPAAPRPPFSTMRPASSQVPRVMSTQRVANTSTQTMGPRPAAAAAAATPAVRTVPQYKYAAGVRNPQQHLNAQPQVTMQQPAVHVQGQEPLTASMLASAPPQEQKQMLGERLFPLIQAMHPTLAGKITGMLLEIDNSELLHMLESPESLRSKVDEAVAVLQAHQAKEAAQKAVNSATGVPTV
Chain of Cytochrome P450 3A4 (P08684 whole entry): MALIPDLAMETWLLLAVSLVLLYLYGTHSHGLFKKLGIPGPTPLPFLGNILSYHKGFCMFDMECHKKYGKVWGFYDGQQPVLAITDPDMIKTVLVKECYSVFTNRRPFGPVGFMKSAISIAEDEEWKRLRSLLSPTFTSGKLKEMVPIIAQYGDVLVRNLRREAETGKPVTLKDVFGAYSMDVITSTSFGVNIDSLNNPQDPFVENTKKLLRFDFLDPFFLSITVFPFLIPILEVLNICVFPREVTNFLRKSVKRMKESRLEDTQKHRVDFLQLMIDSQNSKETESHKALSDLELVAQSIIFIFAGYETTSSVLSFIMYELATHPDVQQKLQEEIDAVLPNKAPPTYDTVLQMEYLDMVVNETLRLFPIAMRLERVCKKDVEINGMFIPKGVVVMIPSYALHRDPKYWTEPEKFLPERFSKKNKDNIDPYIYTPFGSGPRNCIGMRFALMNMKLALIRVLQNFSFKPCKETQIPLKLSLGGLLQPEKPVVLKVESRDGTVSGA
Chain of Paired box protein Pax-8 (Q06710 whole entry): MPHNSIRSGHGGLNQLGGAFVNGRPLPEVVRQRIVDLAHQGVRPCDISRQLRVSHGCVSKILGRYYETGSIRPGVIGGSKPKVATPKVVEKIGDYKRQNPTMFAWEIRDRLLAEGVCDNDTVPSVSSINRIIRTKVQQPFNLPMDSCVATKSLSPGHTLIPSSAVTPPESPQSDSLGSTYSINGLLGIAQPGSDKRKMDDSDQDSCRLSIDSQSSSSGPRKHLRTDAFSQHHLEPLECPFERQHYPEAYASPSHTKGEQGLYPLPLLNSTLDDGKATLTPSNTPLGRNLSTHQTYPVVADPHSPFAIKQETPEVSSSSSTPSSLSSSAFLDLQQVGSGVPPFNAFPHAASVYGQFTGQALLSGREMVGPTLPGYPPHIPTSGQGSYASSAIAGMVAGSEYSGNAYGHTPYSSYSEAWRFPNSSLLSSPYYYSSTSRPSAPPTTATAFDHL
Chain of Luciferin 4-monooxygenase (P08659 whole entry): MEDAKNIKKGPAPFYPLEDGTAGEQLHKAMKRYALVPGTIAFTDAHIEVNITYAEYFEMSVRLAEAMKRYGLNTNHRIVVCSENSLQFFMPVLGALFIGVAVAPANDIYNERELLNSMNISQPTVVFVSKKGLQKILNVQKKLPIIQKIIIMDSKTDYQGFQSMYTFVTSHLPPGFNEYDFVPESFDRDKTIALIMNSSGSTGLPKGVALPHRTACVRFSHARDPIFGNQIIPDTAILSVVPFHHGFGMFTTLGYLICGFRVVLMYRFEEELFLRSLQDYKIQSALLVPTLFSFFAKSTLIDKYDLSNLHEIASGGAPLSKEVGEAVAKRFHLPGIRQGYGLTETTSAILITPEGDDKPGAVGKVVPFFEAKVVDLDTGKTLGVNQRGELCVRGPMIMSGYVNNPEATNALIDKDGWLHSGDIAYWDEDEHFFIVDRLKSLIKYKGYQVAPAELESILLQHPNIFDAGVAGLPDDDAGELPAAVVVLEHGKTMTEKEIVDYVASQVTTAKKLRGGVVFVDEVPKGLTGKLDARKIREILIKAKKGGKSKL
Chain of Cytochrome P450 2C9 (P11712 whole entry): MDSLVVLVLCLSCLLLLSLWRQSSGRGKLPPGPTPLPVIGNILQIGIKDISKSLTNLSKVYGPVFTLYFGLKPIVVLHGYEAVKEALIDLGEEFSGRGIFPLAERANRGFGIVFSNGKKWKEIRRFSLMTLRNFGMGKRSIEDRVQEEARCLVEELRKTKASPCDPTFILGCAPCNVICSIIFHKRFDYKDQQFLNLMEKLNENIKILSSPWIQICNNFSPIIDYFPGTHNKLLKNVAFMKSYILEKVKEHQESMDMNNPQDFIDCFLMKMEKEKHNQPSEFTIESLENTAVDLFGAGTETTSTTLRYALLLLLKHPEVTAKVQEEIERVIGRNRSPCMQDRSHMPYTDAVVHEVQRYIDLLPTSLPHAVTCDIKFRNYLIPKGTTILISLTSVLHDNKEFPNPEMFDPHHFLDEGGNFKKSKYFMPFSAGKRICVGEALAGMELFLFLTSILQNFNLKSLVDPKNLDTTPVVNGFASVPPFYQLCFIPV
Chain of Induced myeloid leukemia cell differentiation protein Mcl-1 (Q07820 whole entry): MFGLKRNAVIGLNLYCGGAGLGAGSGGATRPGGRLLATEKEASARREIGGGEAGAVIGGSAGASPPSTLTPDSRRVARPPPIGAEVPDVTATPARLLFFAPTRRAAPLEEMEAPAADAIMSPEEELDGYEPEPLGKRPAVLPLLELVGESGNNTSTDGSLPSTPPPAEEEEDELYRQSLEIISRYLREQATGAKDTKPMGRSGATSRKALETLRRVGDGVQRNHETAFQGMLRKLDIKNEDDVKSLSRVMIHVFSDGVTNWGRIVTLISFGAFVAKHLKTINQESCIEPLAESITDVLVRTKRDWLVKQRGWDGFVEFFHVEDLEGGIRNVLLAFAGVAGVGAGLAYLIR

## O=C(CC(Sc1ccccc1)c1cccs1)c1ccco1 (centres undefined)
[1]
  IC50: > 66 µM (inactive)
[2]
  IC50: > 66 µM (inactive)

## Cc1cc(/C=C(\C#N)C(=O)Nc2ccccc2)c(C)n1-c1ccc(C(=O)O)cc1
[3]
  EC50: > 300 µM (not active)
[4]
  EC50: > 300 µM (not active)

## CCC(C)NCCCOc1c(C)cc(C)cc1Br (centres undefined)
[5]
  IC50: 6.63 µM (not active)

## CCn1c(-c2ccco2)nc2ccccc21
Cells [6]
  IC50: > 50 µM (active)

## CN(C1CCCC1)C1CCN(C(S)=Nc2cc(F)cc(F)c2)CC1
Cells [7]
  EC50: > 350 µM (not active)
Cells [8]
  EC50: > 350 µM (not active)

## CCn1nc(C)c(/C=C2\CCCC3=C2OC(N)=C(C#N)C3c2c(C)nn(CC)c2C)c1C (centres undefined)
[3]
  EC50: 36 µM (active)
[4]
  EC50: 51.8 µM (active)

## COc1cc(SC)ccc1C(=O)NCCc1ccccc1
Cells [7]
  EC50: 18.9 µM (active)
Cells [8]
  EC50: > 350 µM (not active)

## Cc1cc(Oc2ccccc2)nc(N2CCOCC2)n1
Cells [7]
  EC50: > 350 µM (not active)
Cells [8]
  EC50: > 350 µM (not active)

## Cc1ccc(C(=O)CNc2cccc([N+](=O)[O-])c2)cc1
[1]
  IC50: > 66 µM (inactive)
[2]
  IC50: > 66 µM (inactive)

## CCOc1ccc(-c2nn(-c3ccccc3)cc2/C=C2\SC(=S)N(C3CCS(=O)(=O)C3)C2=O)cc1 (centres undefined)
[3]
  EC50: > 300 µM (not active)
[4]
  EC50: > 300 µM (not active)
[9]
  EC50: 13.1 µM (active)

## COc1ccc(C2(O)CCN(CCCCOc3ccccc3)CC2)cc1
Cells [6]
  IC50: 32.8 µM (active)

## O=C(COC(=O)COc1ccc(Nc2ccccc2)cc1)NCc1ccco1
[10]
  IC50: 77.4 µM (active)
Cells [6]
  IC50: 4.72 µM (active)

## COc1ccc(NC(=O)CSc2nnc(NC(C)=O)s2)c([N+](=O)[O-])c1
[1]
  IC50: > 66 µM (inactive)
[2]
  IC50: > 66 µM (inactive)

## Cc1ccccc1NC(=O)/C(C#N)=C/c1ccc(-c2ccc(Cl)c(C(=O)O)c2)o1
[3]
  EC50: > 300 µM (not active)
[4]
  EC50: > 300 µM (not active)

## COc1cc(C2C(C#N)=C(N)OC3=C2C(=O)CCC3)cc(OC)c1OC(=O)N1CCOCC1 (centres undefined)
[3]
  EC50: > 300 µM (not active)
Cytochrome P450 2C9
  AC50: 22.4 µM (inconclusive)
Cytochrome P450 3A4
  AC50: 25.1 µM (inconclusive)
[4]
  EC50: > 300 µM (not active)

## C=CCn1c(=S)[nH]c2nc3c(cc2c1=O)COC(C)(C)C3
[3]
  EC50: > 300 µM (not active)
[4]
  EC50: > 300 µM (not active)

## COC(=O)/C(C#N)=C/c1c(N2CCN(Cc3ccc4c(c3)OCO4)CC2)nc2c(C)cccn2c1=O
Cells [7]
  EC50: > 350 µM (not active)
Cells [8]
  EC50: > 350 µM (not active)

## COc1ccc(C=C2c3ccccc3C(=O)c3ccccc32)c(OC)c1
BJ [11]
  EC50: 2.33 µM (inconclusive)
[12]
  EC50: 2.6 µM (active)
BJ [13]
  EC50: 18.3 µM (inconclusive)
BJ [14]
  EC50: 2.8 µM (inconclusive)
Vero
  CC50: < 0.05 µM (active)

## O=C(COc1ccc(Cl)cc1)Nc1ccc(Cl)cn1
Cells [6]
  IC50: 30.3 µM (active)

## Fc1cccc(/C=N/Nc2nccnc2Cl)c1
BJ [11]
  EC50: 11 µM (active)
Cells [7]
  EC50: 7.47 µM (active)
[12]
  EC50: 11.3 µM (active)
BJ [13]
  EC50: > 75 µM (inconclusive)
[15]
  EC50: 3.81 µM (active)
[16]
  EC50: 2.26 µM (active)
BJ [14]
  EC50: 11.9 µM (active)
Cells [8]
  EC50: > 350 µM (not active)

## C[C@@H]1CCCCO[C@@H](CN(C)C(=O)C2CCCCC2)[C@H](C)CN([C@H](C)CO)C(=O)c2cc(NS(=O)(=O)c3ccc(Cl)cc3)ccc2O1
Paired box protein Pax-8
  AC50: 4.99 µM (active)

## COc1ccc2o/c(=N\O)c(C(=O)Nc3ccc(C)cc3)cc2c1
[17]
  EC50: 14.1 µM (active)
H4
  EC50: 15.2 µM (active)
Vero
  CC50: > 25 µM (active)
[18]
  EC50: 16.6 µM (active)

## C/C(=N\NC(=O)c1ccc([N+](=O)[O-])c(C)c1)c1ccccc1Cl
Cells [6]
  IC50: 42.2 µM (active)

## CSc1nncc(/C(C)=N\Nc2ccccc2)n1
[3]
  EC50: 41.3 µM (active)
Cytochrome P450 3A4
  AC50: 2.51 µM (inconclusive)
[4]
  EC50: > 300 µM (not active)

## COc1cccc(C2C3=C(N=c4s/c(=C\c5ccccc5O)c(=O)n42)c2ccccc2CC3)c1OC (centres undefined)
Cells [7]
  EC50: > 350 µM (not active)
Cells [8]
  EC50: > 350 µM (not active)
